According to publication PMC5077133, “Towards Development of Small Molecule Lipid II Inhibitors as Novel Antibiotics” (PLoS ONE, 2016):

Legend:
A. baumanii ATCC 19606 = experiment: Antibacterial activity (MIC, broth dilution); type: cell-based, Acinetobacter baumanii; details: CLSI, in µg/mL
Description: Staphylococcus aureus ATCC 29213, Escherichia coli ATCC 25922, Enterococcus faecalis ATCC 29212, Streptococcus pneumonia ATCC 49619 and Acinetobacter baumanii ATCC 19606 were obtained from Microbiologics (St. Cloud, MN). E. faecalis ATCC 51575, ATCC 51299 and REMEL C99707 and E. faecium ATCC 51559 (MDR), REMEL IH79985 and REMEL C110914 were generously provided by the Laboratory of Pathology, University of Maryland Baltimore School of Medicine. Unless stated otherwise, chemicals and reagents were purchased from Sigma.
(§1) Determination of the Minimal Inhibitory Concentrations (MIC) by dilution was carried out by broth dilution according to CLSI standards.

E. aerogenes ATCC 13048 = experiment: Antibacterial activity (MIC, broth dilution); type: cell-based; details: CLSI
Protocol: as §1

E. cloacae ATCC 13047 = experiment: Antibacterial activity (MIC, broth dilution); type: cell-based; details: CLSI
Protocol: as §1

E. faecium EF1509 (VRE) = experiment: Antibacterial activity (MIC, broth dilution); type: cell-based; details: CLSI, in µg/mL
Protocol: as §1

E. faecium F118 (VRE) = experiment: Antibacterial activity (MIC, broth dilution); type: cell-based; details: CLSI, in µg/mL
Protocol: as §1

[1] = test system: K. pneumoniae NR-15410 (KPC); experiment: Antibacterial activity (MIC, broth dilution); type: cell-based; details: CLSI
Protocol: as §1

[2] = test system: K. pneumoniae NR-15411 (KPC); experiment: Antibacterial activity (MIC, broth dilution); type: cell-based; details: CLSI
Protocol: as §1

P. aeruginosa ATCC 27853 = experiment: Antibacterial activity (MIC, broth dilution); type: cell-based; details: CLSI
Protocol: as §1

P. aeruginosa PA01 = experiment: Antibacterial activity (MIC, broth dilution); type: cell-based; details: CLSI
Protocol: as §1

P. aeruginosa X13273 = experiment: Antibacterial activity (MIC, broth dilution); type: cell-based; details: CLSI, in µg/mL
Protocol: as §1

[3] = test system: S. aureus HFH-30123 (MRSA); experiment: Antibacterial activity (MIC, broth dilution); type: cell-based; details: CLSI
Protocol: as §1

S. aureus MRSA 1094 = experiment: Antibacterial activity (MIC, broth dilution); type: cell-based; details: CLSI
Protocol: as §1

HeLa cells = experiment: Cytotoxicity against mammalian cells (MTS assay); type: cell-based
Protocol: The cytotoxicity concentration of antibacterial compounds that produces half maximal decrease in viability (CC50) against mammalian cells (HeLa, ATCC CCL-2.2) was determined as described. The effect of compounds on HeLa cell viability was assessed in triplicate by measuring the mitochondrial activity using MTS assays according to the manufacturer’s instructions (Cell Titer 96 proliferation assay, Promega). The cells were incubated for 72 hours in RPMI1640 medium containing the compounds at final concentrations ranging from 64 to 0.125 μg/ml. CC50 was determined using a standard curve of serially diluted untreated cells in each experiment.

[4] = Lipid II binding by Surface Plasmon Resonance; details: SPR, immobilized 3-Lipid II, 25°C
Protocol: Short-chain water-soluble Lipid II containing a lipid tail of three isoprene units was generated and purified essentially as described. Typically, M. flavus vesicles (120 μmol lipid-Pi) were incubated together with 500 μmol UDP-GlcNAc, 500 μmol UDP-MurNAC-pentapeptide and 400 μmol farnesyl phosphate in 100 mM Tris-HCl pH 8.0, 5 mM MgCl2. The incubation lasted two hours at room temperature for 3-P. The synthesis of 3-Lipid II was followed using RP-8 reversed phase TLC (Merck) developed in 75% methanol. For purification, the membranes were removed by centrifugation at 40,000 x g and the supernatant was collected and loaded on a C18 HPLC column and eluted with a linear gradient from 50 mM ammonium bicarbonate to 100% methanol in 30 minutes. Farnesyl-Lipid II (3-Lipid II) eluted at approximately 60% methanol. Its identity was confirmed by mass spectroscopy. Surface Plasmon Resonance binding experiments were carried out on a BIAcore T100 system (BIAcore Inc., Piscataway, NY) at 25°C. The assay buffer was 10 mM HEPES, 150 mM NaCl, 0.05% surfactant P20, pH 7.4 (± 3 mM EDTA) supplemented with 10% DMSO. 3-Lipid II (50 RUs) was immobilized on CM5 sensor chips using the amine-coupling chemistry recommended by the manufacturer. For initial determination of binding, compounds were introduced into the flow-cells (30 μl/min) in the running buffer at 10 μM. Resonance signals were corrected for nonspecific binding by subtracting the background of the control flow-cell. After each analysis, the sensor chip surfaces were regenerated with 50 mM NaOH for 30 s at a flow rate 100 μl/min, and equilibrated with the buffer prior to next injection. For binding kinetics studies, binding isotherms were analyzed with manufacturer-supplied software for BIAcore T100.

| Structure (SMILES) | Antibacterial activity (MIC) A. baumanii ATCC 19606 (A. baumanii ATCC 19606) | Antibacterial activity (MIC) E. aerogenes ATCC 13048 (E. aerogenes ATCC 13048) [µg/mL] | Antibacterial activity (MIC) E. cloacae ATCC 13047 (E. cloacae ATCC 13047) [µg/mL] | Antibacterial activity (MIC) E. faecium EF1509 (VRE) (E. faecium EF1509 (VRE)) | Antibacterial activity (MIC) E. faecium F118 (VRE) (E. faecium F118 (VRE)) | Antibacterial activity (MIC) K. pneumoniae NR-15410 (KPC) [1] [µg/mL] | Antibacterial activity (MIC) K. pneumoniae NR-15411 (KPC) [2] [µg/mL] | Antibacterial activity (MIC) P. aeruginosa ATCC 27853 (P. aeruginosa ATCC 27853) [µg/mL] | Antibacterial activity (MIC) P. aeruginosa PA01 (P. aeruginosa PA01) [µg/mL] | Antibacterial activity (MIC) P. aeruginosa X13273 (P. aeruginosa X13273) | Antibacterial activity (MIC) S. aureus HFH-30123 (MRSA) [3] [µg/mL] | Antibacterial activity (MIC) S. aureus MRSA 1094 (S. aureus MRSA 1094) [µg/mL] | CC50% (72 h HeLa cells) (HeLa cells) | Lipid II binding Kd [4] | Kd [4] [µM] |
| --- | --- | --- | --- | --- | --- | --- | --- | --- | --- | --- | --- | --- | --- | --- | --- |
| Cc1cc(/C=C/c2ccc(N(C)C)cc2)cc(C)[o+]1.F[B-](F)(F)F [6jc37] | >=64 | ≥ 64 | ≥ 64 | 64 | 64 | ≥ 64 | ≥ 64 | ≥ 64 | ≥ 64 | >=64 | 16 | 16 | 18.96 | No |  |
| Cc1cc(/C=C/C=C/c2ccc(N(C)C)cc2)cc(C)[o+]1.F[B-](F)(F)F [6jc38] | >=64 | ≥ 64 | ≥ 64 | >=64 | >=64 | ≥ 64 | ≥ 64 | ≥ 64 | ≥ 64 | >=64 | ≥ 64 | 64 | >32 | No |  |
| CN(C)c1ccc(/C=C/c2cc(-c3ccccc3)cc(-c3ccccc3)[o+]2)cc1.F[B-](F)(F)F [6jc39] | 16 | ≥ 64 | ≥ 64 | 4 | 4 | 64 | ≥ 64 | ≥ 64 | ≥ 64 | >=64 | 4 | 2 | 1.31 |  | 39 ± 4 |
| CN(C)c1ccc(/C=C/c2cc(-c3ccc(Cl)cc3)cc(-c3ccc(Cl)cc3)[o+]2)cc1.F[B-](F)(F)F [6jc41-1] | >=64 | ≥ 64 | ≥ 64 | 22.63 | 8 | ≥ 64 | ≥ 64 | ≥ 64 | ≥ 64 | >=64 | 32 | 16 | >32 |  | 34 ± 4 |
| CN(C)c1ccc(/C=C/C=C/c2cc(-c3ccccc3)cc(-c3ccccc3)[o+]2)cc1.F[B-](F)(F)F [6jc43-1] | 45.25 | ≥ 64 | ≥ 64 | 4 | 4 | ≥ 64 | ≥ 64 | ≥ 64 | ≥ 64 | >=64 | 4 | 4 | 0.93 |  | 62 ± 6 |
